Experimental data: patent US20110207751A1, “HETEROCYCLIC COMPOUNDS AND USES AS ANTICANCER AGENTS” (priority 2010, published 2011)
Where a name gives a salt, the structure may show the parent alone. Read-outs that look alike come from different tables or passages of the source.

Key:
Assay type in all cases: cell-based
[1] = tested on: HepG2 cells (human liver cancer cell line); test: Inhibition of cell proliferation, xCelligence cell index; conditions: 72 hr post compound treatment, read-out: calculated IC50
Text: (§1) The biological activity of compounds disclosed herein was monitored and profiled using the Real-Time Cell Electronic Sensing (RT-CES®) system from ACEA Biosciences, Inc. The RT-CES system utilizes cell-substrate impedance technology to monitor cellular behavior inside tissue culture wells in a microtiter plate format. The technology features in the integration of molecular and cell biology with microelectronics and is based on the electronic detection of biological assay process. […]
(§2) For measurement of cell-substrate or cell-electrode impedance using RT-CES technology, microelectrodes having appropriate geometries are fabricated onto the bottom surfaces of microtiter plate or similar device, facing into the wells. […] When there are changes to the biological status of the cells analogue electronic readout signals are measured automatically and in real time, and are converted to digital signals for processing and for analysis. In a RT-CES system, a cell index (arbitrary representation of change in impedance) is automatically derived and provided based on measured electrode impedance values. […]
(§3) To quantify cell status based on the measured cell-electrode impedance, a parameter termed Cell Index is derived. Cell Index is a quantitative measure of the status of the cells in an electrode-containing well. […]

[2] = tested on: MCF7 cells (human breast cancer cell line); test: as above; conditions: 72 hr post compound treatment, read-out: calculated IC50
Text: as §1, §2, §3

[3] = tested on: MDA-MB-231 cells (human breast cancer cell line); test: as above; conditions: 72 hr post compound treatment, read-out: calculated IC50
Text: as §1, §2, §3

[4] = tested on: NIH 3T3 cells (the normal tissue cell line); test: as above; conditions: Mus musculus, NIH3T3
Text: as §1, §2, §3

human cancer cell lines = test: RT-CES / xCelligence profiling over the panel of cell lines
Text: as §1, §2, §3

IC50 [1]: 25.9 nM
IC50 [2]: 74.4 nM
IC50 [3]: 32.4 nM
IC50 towards all tested cancer cell lines (human cancer cell lines; all tested cancer cell lines): low nM range
Structure (SMILES): CCc1ccc(Nc2nc(-c3c(C)nc4sccn34)cs2)cc1 [COMPOUND O, 2-(4-ethylphenyl)amino-4-(6-methylimidazo[2,1-b]thiazol-5-yl)-thiazole monohydrobromide]
IC50 ([4]; NIH 3T3, 72 hr post compound treatment, read-out: calculated IC50): 6000 nM
IC50 ([4]; NIH-3T3, read-out: IC50): 6000 nM
effect on the proliferation of the cancer cell lines (human cancer cell lines; cell lines listed in b189 (FIGS. 4-24)): exhibited inhibitory effect
